# Source: PubChem BioAssay AID2060904 (Molecular Pharmacology Branch, DTP, NCI, 2025)
# pIC50: −log10 of the molar value.
# Tested on: 349418-098-R-PDC complex spheroid viability
# Test: Anticancer human tumor 349418-098-R-PDC patient-derived lung adenocarcinoma cell line growth inhibition [RAS]
# Conditions: for pIC50: curve of first compound; for viability, T/C: stronger effect = lower value
# Text: RAS pathway inhibitors in Combinations in Complex Spheroids
# A high-throughput screen of multi-cell type tumor spheroids was designed to identify active combinations of RAS pathway inhibitors and targeted small molecules. Complex spheroids include a stromal component modeled by human endothelial cells (HUVEC) and fibroblasts modeled by human mesenchymal stem cells (MSCs). The concentration ranges selected for each drug and investigational agent were based upon clinically achievable concentrations if the clinical Cmax of the agent was known.
# Compounds. The drugs and investigational agents: abemaciclib (NSC768073), cobimetinib (NSC768068), divarasib (GDC6063, NSC841802), docetaxel (NSC628503), GDC-1971 (RLY-1971, NSC841576), gemcitabine (NSC613327), inavolisib (NSC800729), ipatasertib (NSC767898), KB-0742 (NSC834161), MRTX-1133 (NSC836407), osimertinib (NSC779217), RMC-4630 (NSC839698), RMC-6236 (NSC851965), RMC-6291 (NSC852671), Ro-3306 (NSC812927), sapanisertib (NSC764658), SN-38 (NSC673596), staurosporine (NSC755774), SY5609 (NSC837396), and tovorafenib (DAY101, NSC766906), were obtained from the National Cancer Institute (NCI) Developmental Therapeutics Program Chemical Repository. The FDA-approved anticancer drug set is available from the NCI Developmental Therapeutics Program. […] The stock solutions were prepared in dimethyl sulfoxide (DMSO, Sigma-Aldrich, St. Louis, MO, cat. D2650) at 800-fold the tested concentration and stored at -70 degrees C prior to their use. All drugs and investigational agents were tested over a range starting from a high concentration at or near the clinical Cmax and decreasing in half-log increments. If the clinical Cmax for an agent had not been determined, the highest concentration tested was 10 microM.
# Cell Culture. All cells were maintained in an incubator at 37 degrees C and 5% CO2 with 95% humidity. The PDC lines were cultured according to standard operating procedures established by the NCI PDMR. All PDCs were thawed and cultured in Matrigel-coated flasks prepared with a working solution of 1X Ham's F-12 nutrient mix, without supplementation (Invitrogen, Waltham, MA, cat. 11765054), 100 U/mL penicillin-streptomycin (Invitrogen, cat. 15140122), and 2.5% Matrigel (Corning Inc., Corning, NY, cat. 354248) for the first three passages. The 362531-283-R-J2-PDC and 782815-120-R-J1-PDC lines were cultured in 6C/Colon 1B media, which includes advanced DMEM/F-12 (Thermo Fisher Scientific, cat. 12634028), 10 mM HEPES (Thermo Fisher Scientific, cat. 15630080), 1X GlutaMAX supplement (Thermo Fisher Scientific, cat. 35050061), 0.1 mg/mL primocin (InvivoGen, San Diego, CA, cat. ant-pm-2), 10% defined fetal bovine serum, heat inactivated (HyClone Laboratories Inc., Logan, UT, cat. SH30070.03HI), 50% L-WRN conditioned media (ATCC, cat. CRL-3276), 1.25 mM N-Acetyl-L-cysteine (Sigma-Aldrich, cat. A9165), 10 mM nicotinamide (Sigma-Aldrich, cat. N0636), 1X B-27 supplement (Thermo Fisher Scientific, cat. 17504044), 1X N-2 supplement (Thermo Fisher Scientific, cat. 17502048), 50 ng/mL human EGF (Thermo Fisher Scientific, cat. PHG0311), and 10 microM Y-27632 dihydrochloride (Tocris Bioscience, cat. 1254). The K12877-001-R-J1-PDC line was cultured in 6I media, which includes all 6C/Colon 1B media plus 10 ng/mL human FGF-10 (PeproTech, cat. 100-26), 1 ng/mL human FGF-2 (PeproTech, cat. 100-18B), 1 µM prostaglandin E2 (Tocris Bioscience, cat. 2296), […] hydrocortisone (Sigma-Aldrich, cat. H4001), and […] bovine insulin (Sigma-Aldrich, cat. I6634). The K86415-001-R-J1-PDC line was cultured in 6D media, which includes all 6C/Colon 1B media components minus the L-WRN conditioned media. The 485176-168-R4-J1-PDC was cultured in PANC media, which includes all 6C/Colon 1B media plus 100 ng/mL human FGF-10 (PeproTech, cat. 100-26), 500 nM SB-431542 (Selleckchem, cat. S1067), and 10 nM gastrin (Tocris Bioscience, cat. 3006). […]
# [1] = second compound 0.0316 µM, first compound 0.0316 µM
# [2] = second compound 0.0316 µM, first compound 0.1 µM
# [3] = second compound 0.0316 µM, first compound 0.316 µM
# [4] = second compound 0.0316 µM, first compound 1 µM
# [5] = second compound 0.0316 µM, first compound 3.16 µM
# [6] = second compound 0.0316 µM, first compound 10 µM
# [7] = second compound 0.1 µM, first compound 0.0316 µM
# [8] = second compound 0.1 µM, first compound 0.1 µM
# [9] = second compound 0.1 µM, first compound 0.316 µM
# [10] = second compound 0.1 µM, first compound 1 µM
# [11] = second compound 0.1 µM, first compound 3.16 µM
# [12] = second compound 0.1 µM, first compound 10 µM
# [13] = second compound 0.316 µM, first compound 0.0316 µM
# [14] = second compound 0.316 µM, first compound 0.1 µM
# [15] = second compound 0.316 µM, first compound 0.316 µM
# [16] = second compound 0.316 µM, first compound 1 µM
# [17] = second compound 0.316 µM, first compound 3.16 µM
# [18] = second compound 0.316 µM, first compound 10 µM
# [19] = second compound 1 µM, first compound 0.0316 µM
# [20] = second compound 1 µM, first compound 0.1 µM
# [21] = second compound 1 µM, first compound 0.316 µM
# [22] = second compound 1 µM, first compound 1 µM
# [23] = second compound 1 µM, first compound 3.16 µM
# [24] = second compound 1 µM, first compound 10 µM
# [25] = second compound 3.16 µM, first compound 0.0316 µM
# [26] = second compound 3.16 µM, first compound 0.1 µM
# [27] = second compound 3.16 µM, first compound 0.316 µM
# [28] = second compound 3.16 µM, first compound 1 µM
# [29] = second compound 3.16 µM, first compound 3.16 µM
# [30] = second compound 3.16 µM, first compound 10 µM
# [31] = second compound 10 µM, first compound 0.0316 µM
# [32] = second compound 10 µM, first compound 0.1 µM
# [33] = second compound 10 µM, first compound 0.316 µM
# [34] = second compound 10 µM, first compound 1 µM
# [35] = second compound 10 µM, first compound 3.16 µM
# [36] = second compound 10 µM, first compound 10 µM
# 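Further: spheroids exposed to compound for seven days before viability readout.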
structure (smiles),measurement,setting,value
CC(C)NCC(C(=O)N1CCN(c2ncnc3c2C(C)CC3O)CC1)c1ccc(Cl)cc1 (stereo unspecified) + C#Cc1c(F)ccc2cc(O)cc(-c3ncc4c(N5CC6CCC(C5)N6)nc(OCC56CCCN5CC(F)C6)nc4c3F)c12,pIC50,second compound 0.0316 µM,6.47
same,pIC50,second compound 0.1 µM,6.24
same,pIC50,second compound 0.316 µM,6.73
same,pIC50,second compound 1 µM,6.46
same,pIC50,second compound 3.16 µM,6.28
same,pIC50,second compound 10 µM,7.46
same,"viability, T/C",[1],84%
same,"viability, T/C",[2],59.1%
same,"viability, T/C",[3],60.1%
same,"viability, T/C",[4],29.7%
same,"viability, T/C",[5],25.2%
same,"viability, T/C",[6],9.07%
same,"viability, T/C",[7],62.7%
same,"viability, T/C",[8],78.9%
same,"viability, T/C",[9],68.8%
same,"viability, T/C",[10],32.4%
same,"viability, T/C",[11],20.9%
same,"viability, T/C",[12],11.5%
same,"viability, T/C",[13],72.6%
same,"viability, T/C",[14],46.6%
same,"viability, T/C",[15],51.7%
same,"viability, T/C",[16],31.1%
same,"viability, T/C",[17],21.5%
same,"viability, T/C",[18],8.74%
same,"viability, T/C",[19],75%
same,"viability, T/C",[20],54.8%
same,"viability, T/C",[21],62.9%
same,"viability, T/C",[22],28.8%
same,"viability, T/C",[23],27.3%
same,"viability, T/C",[24],7.4%
same,"viability, T/C",[25],61.9%
same,"viability, T/C",[26],75.1%
same,"viability, T/C",[27],55.1%
same,"viability, T/C",[28],39.2%
same,"viability, T/C",[29],19.7%
same,"viability, T/C",[30],10.7%
same,"viability, T/C",[31],60.7%
same,"viability, T/C",[32],26.3%
same,"viability, T/C",[33],28.1%
same,"viability, T/C",[34],47.3%
same,"viability, T/C",[35],16.9%
same,"viability, T/C",[36],3.22%
CC(C)n1nc(-c2ccc3oc(N)nc3c2)c2c(N)ncnc21 + C#Cc1c(F)ccc2cc(O)cc(-c3ncc4c(N5CC6CCC(C5)N6)nc(OCC56CCCN5CC(F)C6)nc4c3F)c12,pIC50,second compound 0.0316 µM,8.24
same,pIC50,second compound 0.1 µM,8.43
same,pIC50,second compound 0.316 µM,8.28
same,pIC50,second compound 1 µM,8.18
same,pIC50,second compound 3.16 µM,8.43
same,pIC50,second compound 10 µM,8.80
same,"viability, T/C","second compound 0.0316 µM, first compound 0.000316 µM",98.7%
same,"viability, T/C","second compound 0.0316 µM, first compound 0.001 µM",132%
same,"viability, T/C","second compound 0.0316 µM, first compound 0.00316 µM",90.5%
same,"viability, T/C","second compound 0.0316 µM, first compound 0.01 µM",15.3%
same,"viability, T/C",[1],10.9%
same,"viability, T/C",[2],10.4%
same,"viability, T/C","second compound 0.1 µM, first compound 0.000316 µM",67.8%
same,"viability, T/C","second compound 0.1 µM, first compound 0.001 µM",123%
same,"viability, T/C","second compound 0.1 µM, first compound 0.00316 µM",56%
same,"viability, T/C","second compound 0.1 µM, first compound 0.01 µM",19.4%
same,"viability, T/C",[7],10.4%
same,"viability, T/C",[8],9%
same,"viability, T/C","second compound 0.316 µM, first compound 0.000316 µM",87.8%
same,"viability, T/C","second compound 0.316 µM, first compound 0.001 µM",114%
same,"viability, T/C","second compound 0.316 µM, first compound 0.00316 µM",73.9%
same,"viability, T/C","second compound 0.316 µM, first compound 0.01 µM",20.5%
same,"viability, T/C",[13],8.95%
same,"viability, T/C",[14],8.66%
same,"viability, T/C","second compound 1 µM, first compound 0.000316 µM",74.8%
same,"viability, T/C","second compound 1 µM, first compound 0.001 µM",111%
same,"viability, T/C","second compound 1 µM, first compound 0.00316 µM",85.9%
same,"viability, T/C","second compound 1 µM, first compound 0.01 µM",29.2%
same,"viability, T/C",[19],8.08%
same,"viability, T/C",[20],9.16%
same,"viability, T/C","second compound 3.16 µM, first compound 0.000316 µM",109%
same,"viability, T/C","second compound 3.16 µM, first compound 0.001 µM",104%
same,"viability, T/C","second compound 3.16 µM, first compound 0.00316 µM",48.4%
same,"viability, T/C","second compound 3.16 µM, first compound 0.01 µM",30.2%
same,"viability, T/C",[25],9.48%
same,"viability, T/C",[26],8.95%
same,"viability, T/C","second compound 10 µM, first compound 0.000316 µM",56.1%
same,"viability, T/C","second compound 10 µM, first compound 0.001 µM",72%
same,"viability, T/C","second compound 10 µM, first compound 0.00316 µM",28.5%
same,"viability, T/C","second compound 10 µM, first compound 0.01 µM",10.7%
same,"viability, T/C",[31],6.47%
same,"viability, T/C",[32],4.1%
C[C@@H](NC(=O)c1ncnc(N)c1Cl)c1ncc(C(=O)Nc2cc(C(F)(F)F)c(Cl)cn2)s1 + C#Cc1c(F)ccc2cc(O)cc(-c3ncc4c(N5CC6CCC(C5)N6)nc(OCC56CCCN5CC(F)C6)nc4c3F)c12,pIC50,second compound 0.0316 µM,5.61
same,pIC50,second compound 0.1 µM,5.57
same,pIC50,second compound 0.316 µM,5.66
same,pIC50,second compound 1 µM,5.57
same,pIC50,second compound 3.16 µM,5.53
same,pIC50,second compound 10 µM,6.40
same,"viability, T/C",[1],83.8%
same,"viability, T/C",[2],116%
same,"viability, T/C",[3],89%
same,"viability, T/C",[4],67.8%
same,"viability, T/C",[5],47.2%
same,"viability, T/C",[6],35.4%
same,"viability, T/C",[7],101%
same,"viability, T/C",[8],118%
same,"viability, T/C",[9],95.9%
same,"viability, T/C",[10],73.2%
same,"viability, T/C",[11],47.4%
same,"viability, T/C",[12],36.6%
same,"viability, T/C",[13],110%
same,"viability, T/C",[14],119%
same,"viability, T/C",[15],76.4%
same,"viability, T/C",[16],62.4%
same,"viability, T/C",[17],52%
same,"viability, T/C",[18],32.8%
same,"viability, T/C",[19],90.7%
same,"viability, T/C",[20],93.8%
same,"viability, T/C",[21],107%
same,"viability, T/C",[22],76.7%
same,"viability, T/C",[23],47.6%
same,"viability, T/C",[24],34.5%
same,"viability, T/C",[25],86.6%
same,"viability, T/C",[26],92.8%
same,"viability, T/C",[27],87%
same,"viability, T/C",[28],75.2%
same,"viability, T/C",[29],48.5%
same,"viability, T/C",[30],28.4%
same,"viability, T/C",[31],76.5%
same,"viability, T/C",[32],61.5%
same,"viability, T/C",[33],57.5%
same,"viability, T/C",[34],33.2%
same,"viability, T/C",[35],30.2%
same,"viability, T/C",[36],8.17%
